We go through 39 compounds from patent US12384776B2, “Compounds and uses thereof” (Foghorn Therapeutics Inc., priority 2019, dated 2025).

pIC50: −log10 of the molar value. Some results are limits rather than exact numbers.

Sequence of Nanoluciferase-BRD9 fusion protein (3×FLAG-NLuc-BRD9) in SYO-1 cells (Q9H8M2 whole entry, the tested form may be a part): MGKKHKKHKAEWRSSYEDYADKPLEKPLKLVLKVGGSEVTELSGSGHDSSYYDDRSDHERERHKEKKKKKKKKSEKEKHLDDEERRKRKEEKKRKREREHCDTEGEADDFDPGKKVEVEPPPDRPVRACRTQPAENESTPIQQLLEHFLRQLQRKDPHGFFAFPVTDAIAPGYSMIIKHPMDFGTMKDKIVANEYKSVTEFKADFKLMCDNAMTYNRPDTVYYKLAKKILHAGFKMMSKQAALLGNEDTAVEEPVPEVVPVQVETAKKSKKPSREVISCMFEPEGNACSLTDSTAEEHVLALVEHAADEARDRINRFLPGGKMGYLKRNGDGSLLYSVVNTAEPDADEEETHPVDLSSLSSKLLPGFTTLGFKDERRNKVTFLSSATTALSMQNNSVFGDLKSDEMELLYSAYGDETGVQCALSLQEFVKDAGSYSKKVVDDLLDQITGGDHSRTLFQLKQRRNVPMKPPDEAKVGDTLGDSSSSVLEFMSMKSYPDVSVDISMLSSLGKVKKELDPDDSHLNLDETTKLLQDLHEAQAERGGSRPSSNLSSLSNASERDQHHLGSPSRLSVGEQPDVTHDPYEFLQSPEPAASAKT

The first assay has as its target Nanoluciferase-BRD9 fusion protein (3×FLAG-NLuc-BRD9) in SYO-1 cells (Homo sapiens (Human), UniProt Q9H8M2). Put plainly: SYO1 BRD9 NanoLuc degradation assay. Type of assay: cell-based. To be noted: SYO-1 cells expressing 3×FLAG-NLuc-BRD9, 6 hours incubation, top dose 1 μM. The method, boiled down: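 Degradation read as loss of NLuc signal after 6 h compound exposure (1 μM top final, 3-fold steps, 10 points, duplicates) in SYO-1 cells stably carrying 3×FLAG-NLuc-BRD9. Signal normalised between DMSO-treated cells and cells given 1 μM of a known BRD9 degrader.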
As for `CNC(=O)N1CCc2c(-c3cc(OC)c(CN4CC(S(=O)(=O)NCCCOc5ccc6c(c5)C(=O)N(C5CCC(=O)NC5=O)C6=O)C4)c(OC)c3)cn(C)c(=O)c2C1` (stereo not drawn) [Compound D277], the negative-log IC50 (pIC50) – broadly, the negative decadic logarithm of the IC50, by convention in mol/L – is 6.00 to 7.00.

On to `COc1cc(-c2cn(C)c(=O)c3c2CCN(C(=O)NCC2CC4(CCN(CCCOc5ccc6c(c5)C(=O)N(C5CCC(=O)NC5=O)C6=O)CC4)CO2)C3)cc(OC)c1CN(C)C` (stereo not drawn) [Compound D233], for which the pIC50 was 6.00 to 7.00. The same measure, in the same setting: under `COc1cc(-c2cn(C)c(=O)c3c2CCCC3)cc(OC)c1CN1CC(CN2CCC3(CC2)CN(c2ccc4c(c2)C(=O)N(C2CCC(=O)NC2=O)C4)C3)C1` (stereo not drawn) [Compound D301] stands over 8.00; under `CNC(=O)N1CCc2c(-c3cc(OC)c(CN4CCN(CCC5CCN(c6ccc7c(c6)C(=O)N(C6CCC(=O)NC6=O)C7=O)CC5)CC45COC5)c(OC)c3)cn(C)c(=O)c2C1` (stereo not drawn) [Compound D98], over 8.00; under `CNC(=O)N1CCc2c(-c3cc(OC)c(CN4CCC(CCN5CCN(c6ccc7c(c6)C(=O)N(C6CCC(=O)NC6=O)C7)CC5)CC4)c(OC)c3)cn(C)c(=O)c2C1` (stereo not drawn) [Compound D69], over 8.00. `COc1cc(-c2cn(C)c(=O)c3c2CCN(C(=O)NCC2CC4(CCN(CCCCN5CCN(c6ccc7c(c6)C(=O)N(C6CCC(=O)NC6=O)C7=O)CC5)CC4)C2)C3)cc(OC)c1CN(C)C` (stereo not drawn) [Compound D218] had a negative logarithm of the IC50 (pIC50) of 7.00 to 8.00. `COc1cc(-c2cn(C)c(=O)c3c2CCN(C(=O)NC2CCC4(CCN(CCCOc5ccc6c(c5)C(=O)N(C5CCC(=O)NC5=O)C6=O)C4)C2)C3)cc(OC)c1CN(C)C` (stereo not drawn) [Compound D250] showed a pIC50 of 6.00 to 7.00. Same read-out and setting: under `[2H]C1([2H])CC([2H])(N2C(=O)c3ccc(N4CCN(CCC5CCN(Cc6c(OC)cc(-c7cn(C)c(=O)c8c7CCN(C(=O)NC)C8)cc6OC)CC5)CC4)cc3C2=O)C(=O)NC1=O` (stereo not drawn) [Compound D80] stands over 8.00; under `CNC(=O)N1CCc2c(-c3cc(OC)c(CN4CCC(CCN5CCN(c6ccc(-c7cnn(C8CCC(=O)NC8=O)c7)cc6)CC5)CC4)c(OC)c3)cn(C)c(=O)c2C1` (stereo not drawn) [Compound D76], over 8.00; under `CNC(=O)N1CCc2c(-c3cc(OC)c(CN4CCC(CCN5CCCN(c6ccc7c(c6)C(=O)N(C6CCC(=O)NC6=O)C7=O)CC5)CC4)c(OC)c3)cn(C)c(=O)c2C1` (stereo not drawn) [Compound D198], over 8.00. Regarding `CNC(=O)N1CCc2c(-c3cc(OC)c(CN4CCC(CCN5CCN(c6ccc7c(c6)C(=O)N(C6CCC(=O)NC6=O)C7=O)CC5)C(F)(F)C4)c(OC)c3)cn(C)c(=O)c2C1` (stereo not drawn) [Compound D155], the pIC50 is over 8.00.

`CNC(=O)N1CCc2c(-c3cc(OC)c(CN4CC5(CCN(C(C)(C)C#Cc6ccc7c(c6)C(=O)N(C6CCC(=O)NC6=O)C7=O)CC5)C4)c(OC)c3)cn(C)c(=O)c2C1` (stereo not drawn) [Compound D126] had a pIC50 of 6.00 to 7.00. `CNC(=O)N1CCc2c(-c3cc(OC)c(CN(C)CCOCCN4CCN(c5ccc6c(c5)C(=O)N(C5CCC(=O)NC5=O)C6=O)CC4)c(OC)c3)cn(C)c(=O)c2C1` (stereo not drawn) [Compound D284] showed a negative logarithm of the IC50 (pIC50) of 7.00 to 8.00. Turning to `COc1cc(-c2cn(C)c(=O)c3c2CCN(C(=O)NCCN2CCC4(CC2)CN(c2ccc5c(c2)C(=O)N(C2CCC(=O)NC2=O)C5=O)C4)C3)cc(OC)c1CN(C)C` (stereo not drawn) [Compound D212], the negative-log IC50 (pIC50) was 7.00 to 8.00.

`CNC(=O)N1Cc2c(c(-c3cc(OC)c(CN4CCN(CCC5CCN(c6ccc7c(c6)C(=O)N(C6CCC(=O)NC6=O)C7=O)CC5)CC4)c(OC)c3)cn(C)c2=O)CC1C` (stereo not drawn) [Compound D41]: the pIC50 was over 8.00. Still for that read-out and setting: under `CNC(=O)N1CCc2c(-c3cc(OC)c(CN4CCC(CCN5CCN(c6ccc7c(c6)C(=O)N(C6CCC(=O)NC6=O)C7=O)CC5)C4)c(OC)c3)cn(C)c(=O)c2C1` (stereo not drawn) [Compound D148] stands 7.00 to 8.00; under `CNC(=O)N1CCc2c(-c3cc(OC)c(CN4[C@H](C)CN(CCC5CCN(c6ccc7c(c6)C(=O)N(C6CCC(=O)NC6=O)C7=O)CC5)C[C@@H]4C)c(OC)c3)cn(C)c(=O)c2C1` (stereo partly drawn) [Compound D141], over 8.00. The same measure, in the same setting: under `CNC(=O)N1CCc2c(-c3cc(OC)c(CN4CC(C(C)N5CCC6(CC5)CN(c5ccc7c(c5)CN(C5CCC(=O)NC5=O)C7)C6)C4)c(OC)c3)cn(C)c(=O)c2C1` (stereo not drawn) [Compound D51] stands over 8.00; under `COc1cc(-c2cn(C)c(=O)c3c2OCCN3)cc(OC)c1CN1CC(CN2CCC3(CC2)CN(c2ccc4c(c2)C(=O)N(C2CCC(=O)NC2=O)C4)C3)C1` (stereo not drawn) [Compound D66], over 8.00.

For the compound `CNC(=O)N1CCc2c(-c3cc(OC)c(CN4CCN(c5ccc6c(c5)C(=O)N(C5CCC(=O)NC5=O)C6=O)CC4)c(OC)c3)cn(C)c(=O)c2C1` (stereo not drawn) [Compound D131], the pIC50 was over 8.00. On the same count and under the same terms, next, `CNC(=O)N1CCc2c(-c3cc(OC)c(CN4CCN(CCC5CCN(c6ccc7c(c6)C(=O)N(C6CCC(=O)NC6=O)C7=O)CC5)C5(CCC5)C4)c(OC)c3)cn(C)c(=O)c2C1` (stereo not drawn) [Compound D95]: over 8.00; `CNC(=O)N1CCc2c(-c3cc(OC)c(CN4CCN(CCC5CCN(c6ccc7c(c6)C(=O)N(C6CCC(=O)NC6=O)C7=O)CC5)C(COC)C4)c(OC)c3)cn(C)c(=O)c2C1` (stereo not drawn) [Compound D103]: over 8.00.

The compound `CNC(=O)N1CCc2c(-c3cc(OC)c(CN4CCC5(CC4)CN(C(=O)CCCOc4ccc6c(c4)C(=O)N(C4CCC(=O)NC4=O)C6=O)CCO5)c(OC)c3)cn(C)c(=O)c2C1` (stereo not drawn) [Compound D203] showed a negative-log IC50 (pIC50) of 7.00 to 8.00. As to `CNC(=O)N1CCc2c(-c3cc(OC)c(CN4CC(CN5CCN(c6ccc7c(c6)C(=O)N(C6CCC(=O)NC6=O)C7=O)CC5)C4)c(OC)c3)cn(C)c(=O)c2C1` (stereo not drawn) [Compound D168], the pIC50 is 7.00 to 8.00. Still for that read-out and setting: under `COc1cc(-c2cn(C)c(=O)c3c2CCN(C(=O)NC2CC2)C3)cc(OC)c1CN1CCC(CCN2CCN(c3ccc4c(c3)C(=O)N(C3CCC(=O)NC3=O)C4=O)CC2)CC1` (stereo not drawn) [Compound D81] stands over 8.00.

Consider `CNC(=O)N1CCc2c(-c3cc(OC)c(CN4CC(C(C)N5CCC6(CC5)CN(c5ccc7c(c5)C(=O)N(C5CCC(=O)NC5=O)C7=O)C6)C4)c(OC)c3)cn(C)c(=O)c2C1` (stereo not drawn) [Compound D107], for which the negative-log IC50 (pIC50) was over 8.00. The same measure, in the same setting: under `CNC(=O)N1CCc2c(c(-c3cc(OC)c(CN(C)CC45CC(C(=O)NCCCCCOc6cccc7c6C(=O)N(C6CCC(=O)NC6=O)C7=O)(C4)C5)c(OC)c3)cn(C)c2=O)C1` (stereo not drawn) [Compound D294] stands at most 6.00; under `COc1cc(-c2cn(C)c(=O)c3c2CCN(C(=O)NCC2CC4(C2)CN(CCCCN2CCN(c5ccc6c(c5)C(=O)N(C5CCC(=O)NC5=O)C6=O)CC2)C4)C3)cc(OC)c1CN(C)C` (stereo not drawn) [Compound D219], 6.00 to 7.00.

Staying with this assay, now noted: SYO-1 cells, 6 hours, Table 6A.
In turn, `CNC(=O)N1CCc2c(-c3cc(OC)c(CN4CCC5(CC4)CN(C(=O)CCCOc4cccc6c4C(=O)N(C4CCC(=O)NC4=O)C6=O)CCO5)c(OC)c3)cn(C)c(=O)c2C1` (stereo not drawn) [Compound D3, 5-(4-[[4-(4-[[2-(2,6-dioxopiperidin-3-yl)-1,3-dioxoisoindol-4-yl]oxy]butanoyl)-1-oxa-4,9-diazaspiro[5.5]undecan-9-yl]methyl]-3,5-dimethoxyphenyl)-N,7-dimethyl-8-oxo-3,4-dihydro-1H-2,7-naphthyridine-2-carboxamide] gave a pIC50 of under 7.00. In the case of `COc1cc(-c2cn(C)c(=O)c3c2CCN(C(=O)NCCN(C)CCNc2cccc4c2C(=O)N(C2CCC(=O)NC2=O)C4=O)C3)cc(OC)c1CN(C)C` (stereo not drawn) [Compound D6, 5-[4-[(dimethylamino)methyl]-3,5-dimethoxyphenyl]-N-[2-[(2-[[2-(2,6-dioxopiperidin-3-yl)-1,3-dioxoisoindol-4-yl]amino]ethyl)(methyl)amino]ethyl]-7-methyl-8-oxo-3,4-dihydro-1H-2,7-naphthyridine-2-carboxamide], the pIC50 is under 7.00. `COc1cc(-c2cn(C)c(=O)c3c2CCN(C(=O)NCCCCCCCCNC(=O)COc2cccc4c2C(=O)N(C2CCC(=O)NC2=O)C4=O)C3)cc(OC)c1CN(C)C` (stereo not drawn) [Compound D10, 5-(4-((dimethylamino)methyl)-3,5-dimethoxyphenyl)-N-(8-(2-((2-(2,6-dioxopiperidin-3-yl)-1,3-dioxoisoindolin-4-yl)oxy)acetamido)octyl)-7-methyl-8-oxo-3,4,7,8-tetrahydro-2,7-naphthyridine-2 (1H)-carboxamide formic acid] had a pIC50 of under 7.00.

Still in this assay, the particulars now being: SYO-1 cells, 6 hours, Table 6C.
`CNC(=O)N1CCc2c(-c3cc(OC)c(CN4CC(C(N5CCC6(CC5)CN(c5ccc7c(c5)C(=O)N(C5CCC(=O)NC5=O)C7)C6)C(F)(F)F)C4)c(OC)c3)cn(C)c(=O)c2C1` (stereo not drawn) [Compound D334] showed a pIC50 of over 8.00. The same measure, in the same setting: under `[2H]C([2H])([2H])NC(=O)N1CCc2c(-c3cc(OC)c(CN4CCN(CCC5CCN(c6ccc7c(c6)C(=O)N(C6CCC(=O)NC6=O)C7)CC5)CC4)c(OC)c3)cn(C)c(=O)c2C1` (stereo not drawn) [Compound D341] stands over 8.00; under `CNC(=O)N1CCc2c(-c3cc(OC)c(CN4CCN(CCC5CCN(c6ccc7c(c6)C(=O)N(C6CCC(=O)NC6=O)C7)CC5)CC4(C)C)c(OC)c3)cn(C)c(=O)c2C1` (stereo not drawn) [Compound D309], over 8.00; under `COc1cc(-c2cn(C)c(=O)c3c2CCN(C(=O)NCC(F)F)C3)cc(OC)c1CN1CCN(CCC2CCN(c3ccc4c(c3)C(=O)N(C3CCC(=O)NC3=O)C4)CC2)CC1(C)C` (stereo not drawn) [Compound D313], at most 6.00. `COc1cc(-c2cn(C)c(=O)c3c2NCC3)cc(OC)c1CN1CC(CN2CCC3(CC2)CN(c2ccc4c(c2)C(=O)N(C2CCC(=O)NC2=O)C4)C3)C1` (stereo not drawn) [Compound D350] gave a pIC50 of over 8.00. Still for that read-out and setting: next, `COc1cc(-c2cn(C)c(=O)c3c2CCN(C(=O)NCC(F)F)C3)cc(OC)c1CN(C)c1ccc2c(c1)C(=O)N(C1CCC(=O)NC1=O)C2` (stereo not drawn) [Compound D307]: over 8.00; `CNC(=O)N1CCc2c(-c3cc(OC)c(CN4CCN(CCC5CCN(c6ccc7c(c6)CN(C6CCC(=O)NC6=O)C7=O)CC5(F)F)CC4)c(OC)c3)cn(C)c(=O)c2C1` (stereo not drawn) [Compound D330]: over 8.00. Compound `COc1cc(-c2cn(C)c(=O)c3c2COC3)cc(OC)c1CN1CCC(C#Cc2ccc3c(c2)C(=O)N(C2CCC(=O)NC2=O)C3)CC1` (stereo not drawn) [Compound D370] gave a pIC50 of over 8.00.
